We go through seven molecules from EP3235511A1, “SULPHONAMIDE COMPOUNDS FOR USE IN THE TREATMENT OF HHV-8-ASSOCIATED DISEASES” (UNIVERSITA' DEGLI STUDI DI CAGLIARI, priority 2016, dated 2017).

Converted amounts (≈) assume the structure as drawn. Where two headings read alike, the source gives them in different places.

In data set [1] the test system is KSHV virus. Conditions: lytic stage; cited from earlier work.
In data set [2] the test system is KSHV virus. Conditions: latent stage; cited from earlier work.
In another data set the target is T1, MDM2-p53 complex (Homo sapiens, UniProt Q00987).
T1 construct: purchased Sigma
The data set can be described thus: ELISA-based P53-MDM2 binding assay. Here is the method:
In short, 96-well ELISA micro-plates (from Greiner Bio One, Austria) were coated for incubation overnight with 2 µg/mL p53 (human recombinant from Sigma) in PBS at 4 °C. The next day, the coating buffer was removed and the plates were incubated with Chemi-Blocker blocking buffer (from Merck-Millipore, Italy) for 2 hours at room temperature to block non-specific protein binding sites on the plate. […] The compounds under test were dissolved in DMSO (dimethyl sulfoxide, 5 mg/mL stock solution) and diluted in blocking buffer to obtain a final concentration of 50 µg/mL. The total incubation time of GST-MDM2 was 1 h. In order to evaluate the possible interactions of the compounds of the invention with, alternately, p53 and/or MDM2, the tests were conducted in three ways: a) pre-incubation with p53: the compounds were added to the coated micro-wells 30 min. before the GST-MDM2; b) pre-incubation with MDM2: the compounds were added to the GST-MDM2 solution for 30 minutes before adding to the wells; c) incubation after the formation of the p53-MDM2 complex: the compounds were added to the wells 30 minutes after treatment of GST-MDM2. After incubation, the plates were washed 4 times with PBST to remove the unbound MDM2 and incubated with a specific rabbit anti-GST monoclonal antibody (Sigma) diluted in 1/2000 blocking buffer for 1 h, followed by washing and incubation with a secondary immunoglobulin antibody conjugated with 1/200 anti-rabbit (horseradish) HR-peroxidase for 1 h (goat anti-rabbit IgG-HRP, Sigma). […] The absorbance was measured with a Microtiter plate reader (Model 680, from Bio-Rad, Hercules, CA) equipped with a 450 nm filter and the respective luminescence units (RLU) were measured. The inhibition percentage of the p53-MDM2 complex was calculated as follows: […]
Data are expressed as µg/mL ± SE average of three independent experiments.
(An ELISA detects its analyte on a solid surface through an enzyme-linked reagent.)

A further data set has as its system HHV 8 in latent stage. Description: Detection of latent HHV 8 DNA by RT-PCR in BC3 cells. Particulars: BC-3, 144 h, 6 days of culture, drug 100 µM, read-out: inhibition of viral DNA (antiviral activity). In kind it is cell-based. Here is the method: The antiviral activity of the sulphonamide compounds of the present invention was investigated using two different types of tests. In the first one, the DNA of HHV 8 in latent stage was detected by RT-PCR (Real Time- Polymerase Chain Reaction) (see Fig. 1) and in the second one, the LANA antigen was tested using a flow cytometric assay.

Data set [3] can be described thus: Cytotoxicity (MTT cell viability) on BC3 cells. In kind it is cell-based. Particulars: human. Here is the method: (§1) A stock of human HUVEC umbilical cord primary cells (Invitrogen Life Technologies, UK) was cultured in a culture medium M200 (Gibco, Life Technologies, UK) with low serum growth supplement (LSGS, Invitrogen Life Technologies, UK). The HUVEC cells were always kept in a semi-confluent state and were sub-cultured at least once a week. Prior to testing, the cells were sub-cultured no more than 3-5 times. The BC3 cells permanently infected with HHV 8 were cultured in a RPMI 1640 medium supplemented with a 10% fetal calf serum (FCS) (Invitrogen Life Technologies, UK). The BC3 cells were used to produce 100x concentrated stocks of HHV 8, as described in the literature. The pellets of the virus was suspended in RPMI, filtered through a 0.22 µm filter and stored at -80 °C until use. The quantitative analysis of viral genomes present in the stock preparation was obtained by a real-time polymerase chain reaction (qPCR). […] For infection of cells, approximately 5.0 x 10^4 HUVEC cells/mL were seeded in 12 multi-well plates. The cells were infected with HHV 8, concentrated to a multiplicity of at least 10-20 genomes per cell in an M200 containing 2 µg/mL polibrene (esadimetrin bromide) for 2 hours at 37 °C. […] Only cell mono-layers with at least 70-80% of HHV 8 infected cells were used for the experiments.

Data set [4] in a line: Cytotoxicity (MTT cell viability) on HUVEC primary cells. Conditions: human. In kind it is cell-based. On the procedure:
as §1

Another data set in a line: in vitro. Conditions: human, thp-1 cells.
Setting [5] is: read-out: inhibition of MDM2-p53 complex formation.

By CC50 is commonly meant the concentration at which the toxic effect on the cells reaches its halfway point. Higher therefore signals better tolerance by the cells.

T1 sequence (Q00987 whole entry, one chain of several): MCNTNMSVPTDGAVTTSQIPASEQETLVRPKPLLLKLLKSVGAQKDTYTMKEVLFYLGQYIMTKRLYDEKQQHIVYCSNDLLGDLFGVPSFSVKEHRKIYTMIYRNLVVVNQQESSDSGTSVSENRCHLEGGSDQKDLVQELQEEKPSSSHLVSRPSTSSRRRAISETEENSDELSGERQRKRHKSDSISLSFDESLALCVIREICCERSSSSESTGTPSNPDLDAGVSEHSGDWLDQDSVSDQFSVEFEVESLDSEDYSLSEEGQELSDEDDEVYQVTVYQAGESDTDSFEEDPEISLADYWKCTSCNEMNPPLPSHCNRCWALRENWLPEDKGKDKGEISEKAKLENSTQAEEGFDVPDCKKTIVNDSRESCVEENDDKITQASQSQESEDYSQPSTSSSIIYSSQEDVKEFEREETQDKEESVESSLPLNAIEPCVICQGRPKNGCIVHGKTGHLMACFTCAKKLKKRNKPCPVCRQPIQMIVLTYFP
Protocol for in vitro: The THP-1 cells were purchased from Life Technologies (UK) and were cultured in RPMI 1640 medium with 10% fetal bovine serum (FBS).
The cytotoxicity of the compounds under test was assessed by measuring the effect on the cell morphology and the cell viability in vitro. Cell mono-layers were prepared in 24-well tissue culture plates and exposed to various concentrations of the compounds being tested.
The plates were controlled by optical microscopy after 24, 48 and 72 h. Cytotoxicity was evaluated as morphologic changes (for example, rounding, contractions, detachments). The cell viability was determined by means of a tetrazolium-based colorimetric method using the compound 3-(4,5-dimethylthiazol-2-yl)-2,5-diphenyl-tetrazolium bromide (MTT). The cytotoxic dose of 50% (CD50) is the concentration of the compound which reduces the absorbency of the control sample by 50%.

For the molecule `Nc1nc2c(ncn2COCCO)c(=O)[nH]1` [Acyclovir], the “Action on the lytic virus” value in the data set with KSHV virus [1] was “inhibition”. In addition, the “Action on the latent virus” value in the data set with KSHV virus [2] is listed as “no inhibition”.

Consider `Cc1cc(NS(=O)(=O)c2ccc(N)cc2)no1` [BC6, sulfamethoxazole], for which the inhibition at 50 µg/mL at MDM2-p53 complex (setting [5]) amounted to 56%. Also, the inhibition at 100 µM with HHV 8 in latent stage amounted to 93%.

On to `O=C(O)P(=O)(O)O` [Foscarnet], for which the “Action on the lytic virus” value in the data set on KSHV virus [1] was “inhibition”. Moreover, the “Action on the latent virus” value with KSHV virus [2] is reported as “no inhibition”.

For `CC1(C)[C@@H](O[C@H]2O[C@H](C(=O)O)[C@@H](O)[C@H](O)[C@H]2O[C@@H]2O[C@H](C(=O)O)[C@@H](O)[C@H](O)[C@H]2O)CC[C@]2(C)[C@H]3C(=O)C=C4[C@@H]5C[C@@](C)(C(=O)O)CC[C@]5(C)CC[C@@]4(C)[C@]3(C)CC[C@@H]12` [Glycyrrhizic acid], the “Action on the lytic virus” value with KSHV virus [1] is “inhibition”. The “Action on the latent virus” value in the data set on KSHV virus [2] is “Apoptosis”.

Turning to `Nc1ccc(S(N)(=O)=O)cc1` [SA4, sulphanilamide], on MDM2-p53 complex (setting [5]), the inhibition at 50 µg/mL came to 50%. In addition, in the data set with HHV 8 in latent stage, the inhibition at 100 µM is 92%.

Regarding `[H]/N=C(/N)NS(=O)(=O)c1ccc(N)cc1` [SG3, sulphaguanidine], the CC50 was 100 µg/mL (≈ 467 µM) in data set [3], approximately 500 µg/mL (≈ 2330 µM) in data set [4] and approximately 125 µg/mL (≈ 583 µM) in “in vitro”. Also, the inhibition at 100 µM in the data set with HHV 8 in latent stage stood at 52.3%.

On to `Nc1ccc(S(=O)(=O)Nc2nccs2)cc1` [ST5, sulfathiazole], for which the inhibition at 50 µg/mL was approximately 48% on MDM2-p53 complex (added to the ELISA wells 60 minutes after the complex had formed, 50 µg/mL, p = < 0.01, read-out: breaking down the complex already formed) and approximately 70% on MDM2-p53 complex (compound added before the formation of the complex, 50 µg/mL, read-out: inhibition of MDM2-p53 complex formation). Moreover, the CC50 was 100 µg/mL (≈ 393 µM) in data set [3], approximately 250 µg/mL (≈ 979 µM) in data set [4] and approximately 30 µg/mL (≈ 117 µM) in “in vitro”. Besides, the inhibition at 100 µM with HHV 8 in latent stage worked out at 88.5%.
